Each block holds one molecule with its values, some of them ahead of it.
What was measured:
NLRP3 = target: T1, NLRP3 (Homo sapiens, UniProt Q96P20); experiment: IC50 experiment for the detection of NLRP3 antagonist using THP-1 cells (IL-1β secretion, PMA/LPS/ATP); format: cell-based
T1 construct: endogenous in cells
Text: The chemical names and structural formulas of the compounds of the present disclosure for experimental use are shown in the preparation embodiments for each compound. • 1. Experimental principle: In this experiment, the human monocytic cell line THP1 was used to study the inhibitory activity (IC50) of NLRP3 antagonists on the secretion of IL-1β. The monocytic cell line THP1 was differentiated into mature macrophages using PMA (phorbol 12-myristate 13-acetate), and then the cells were stimulated using LPS (lipopolysaccharide), an agonist of Toll-like receptor TLR4, to activate the transcriptional activity of inflammasome NLRP3 and the expression of IL-1β precursor pro-IL-1β. At this time, the NLRP3 antagonist was added, and then ATP was added to further mature and activate NLRP3, and activate downstream caspase-1. Pro-IL-1β could be enzyme-cleaved by the activated caspase-1 to mature IL-1β that could be secreted.

[1] = Pharmacokinetic evaluation of compounds in mice; format: in vivo; conditions: C57BL/6J mice
Method: Experimental Objective: To Test the Pharmacokinetics of Compounds in Mice
Experimental Materials: C57BL/6J Mice (Male, 6-8 Weeks Old)
Experimental operation: The clear solution obtained after the test compound was dissolved was administered to […] C57BL/6J mice (overnight fasting, 6-8 weeks old) via tail intravenous injection and intragastric administration (vehicle: 10% DMSO/10% solutol/80% water). After administration of test compound or control compound, blood was collected from the mandibular vein and centrifuged to obtain plasma at 0.0833, 0.25, 0.5, 1, 2, 4, 8 and 24 h for the intravenous injection group (IV) and at 0.25, 0.5, 1, 2, 4, 6, 8 and 24 h for the intragastric administration group (PO). The plasma concentration was determined by LC-MS/MS, and relevant pharmacokinetic parameters were calculated by the non-compartmental model linear logarithmic trapezoidal method using pharmacokinetic software WinNonlin™ Version 6.3. Meaning of each parameter: T1/2: half-life; Cmax: peak concentration; AUC0-inf: area under the plasma concentration-time curve from time 0 extrapolated to infinite time; F: bioavailability, Vd: apparent volume of distribution, Cl: clearance rate, Tmax: time to peak.

[2] = test system: MSU-induced Air Pouch acute gout model; experiment: MSU-induced Air Pouch acute gout model, IL-6 and IL-1β in APLV; format: in vivo, C57BL/6 mice; conditions: for level of IL-1β in APLV after treatment / level of IL-6 in APLV after treatment: MCC950 50 mg/kg po, 7a 50, 15, 5 mg/kg po, dexamethasone 10 mg/kg ip, MSU 3 mg
Method: Experimental Embodiment 3: Evaluation of the Therapeutic Effect of the Compound on the MSU-Induced Air Pouch Acute Gout Model in C57BL/6 Mice
Air Pouch of mouse is a cystic space similar to the human synovial membrane, and the injection of monosodium urate crystals (MSU) into the air pouch will cause an acute inflammatory response similar to human gout. The inflammatory cytokines IL-6 and IL-1β in the Air Pouch Lavage Fluid flushing fluid (APLV) were analyzed, and MCC950 was used as a control compound, and the efficacy of the compound of the present disclosure on the MSU-induced air pouch gout model in male C57BL/6 mice was tested.
On the seventh day, the drug was administered first, and the MSU crystal solution was injected into the air pouch after 1 hour, and the Air Pouch Lavage Fluid (APLV) was collected after 7 hours and analyzed.
1 g of uric acid was dissolved in 0.2 L of boiling water containing 6 mL of 1 N sodium hydroxide; after the pH was adjusted to 7.4, the solution was gradually cooled at room temperature and then left overnight at 4° C. MSU crystals were recovered by centrifugation and evaporated to dryness, dispensed into individual vials (3 mg), and sterilized by autoclaving.
Healthy C57BL/6 mice were numbered and grouped in the experiment, and 5 mL of sterile air was subcutaneously injected into the back of the mice on the same day of grouping (Day 1) and on the fourth day (Day 4) to generate an air pouch. On the seventh day (Day 7), each group of mice was given vehicle or test sample, and after 1 hour the suspension of MSU crystals (saline, 3 mg/mL) was injected into the air pouch. Air Pouch Lavage Fluid (APLV) would be collected after 6 hours, and ELISA kits would be used to test the levels of IL-6 and IL-1β in APLV. Results were expressed as average value±SEM. Statistical analysis was performed by a method of analysis of variance (ANOVA), followed by Dunnett test, and differences were considered significant when p<0.05.

type II diabete model = conditions: mice; cited from earlier work
[3] = test system: cryopyrin-associated auto-inflammatory syndrome (cAPS) model; conditions: mice; cited from earlier work
NLRP3 inflammasome = NLRP3 inflammasome (Homo sapiens, UniProt Q96P20); conditions: cited from earlier work
[4] = test system: experimental autoimmune encephalomyelitis (EAE); conditions: mice; cited from earlier work
[5] = at the dose of 15 mg/kg and 50 mg/kg po

T1 sequence (Q96P20 whole entry): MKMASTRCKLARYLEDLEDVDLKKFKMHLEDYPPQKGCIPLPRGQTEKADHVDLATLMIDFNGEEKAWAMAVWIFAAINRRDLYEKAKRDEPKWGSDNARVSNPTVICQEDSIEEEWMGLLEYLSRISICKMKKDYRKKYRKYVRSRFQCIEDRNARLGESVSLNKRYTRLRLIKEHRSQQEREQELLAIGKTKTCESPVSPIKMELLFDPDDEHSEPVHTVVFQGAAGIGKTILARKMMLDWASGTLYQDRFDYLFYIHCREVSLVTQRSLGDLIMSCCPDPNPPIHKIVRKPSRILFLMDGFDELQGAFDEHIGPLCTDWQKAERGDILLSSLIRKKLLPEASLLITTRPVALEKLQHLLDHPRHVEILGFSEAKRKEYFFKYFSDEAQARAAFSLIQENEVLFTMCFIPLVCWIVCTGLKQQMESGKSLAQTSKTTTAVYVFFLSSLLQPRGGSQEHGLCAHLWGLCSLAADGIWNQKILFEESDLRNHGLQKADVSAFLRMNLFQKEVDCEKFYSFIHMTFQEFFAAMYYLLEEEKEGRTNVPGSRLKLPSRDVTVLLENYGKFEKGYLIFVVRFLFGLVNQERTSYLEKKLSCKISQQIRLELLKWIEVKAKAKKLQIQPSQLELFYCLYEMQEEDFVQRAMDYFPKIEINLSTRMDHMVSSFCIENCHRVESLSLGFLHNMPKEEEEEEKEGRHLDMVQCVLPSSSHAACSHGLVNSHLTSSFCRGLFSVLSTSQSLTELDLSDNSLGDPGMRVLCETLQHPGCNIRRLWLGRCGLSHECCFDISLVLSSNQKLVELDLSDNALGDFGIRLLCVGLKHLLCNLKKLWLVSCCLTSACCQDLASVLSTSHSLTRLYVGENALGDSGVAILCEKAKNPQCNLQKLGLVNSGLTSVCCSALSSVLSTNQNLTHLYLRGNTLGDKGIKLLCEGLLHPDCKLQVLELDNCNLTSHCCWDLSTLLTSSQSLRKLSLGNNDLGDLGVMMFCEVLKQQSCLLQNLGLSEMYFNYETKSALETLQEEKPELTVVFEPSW
Sequence of NLRP3 inflammasome (Q96P20 whole entry): as above

Structure (SMILES): O=C(O)c1ccc(/C=C2\SC(=O)N(Cc3cccc(C(F)(F)F)c3)C2=O)cc1 [CY-09]
therapeutic effect on type II diabete model (type II diabete model): significant therapeutic effects | therapeutic effect on cAPS model [3]: significant therapeutic effects | assembly and activation of NLRP3 inflammasome (NLRP3 inflammasome): specifically blocks

Structure (SMILES): COc1cc(-c2cccc(C(C)C)c2NC(=O)NS(=O)(=O)c2ccc(N=S(C)(C)=O)s2)ccn1 [Compound 2]
IC50 (NLRP3): 40 nM

Structure (SMILES): COc1cc(-c2ccc3c(c2NC(=O)NS(=O)(=O)c2ccc(N=S(C)(C)=O)s2)CCC3)ccn1 [Compound 3]
IC50 (NLRP3): 10 nM

Structure (SMILES): CC(C)(O)c1coc(S(=O)(=O)NC(=O)Nc2c3c(cc4c2CCC4)CCC3)c1 [MCC950, reference compound]
severity of experimental autoimmune encephalomyelitis (EAE) [4]: reduce the severity | level of IL-1β in APLV after treatment [2]: decreased rapidly | level of IL-6 in APLV after treatment [2]: decreased rapidly

Further lines, with some results ahead:

IC50 (NLRP3): 33.9 nM
Structure (SMILES): CS(C)(=O)=Nc1ccc(S(=N)(=O)NC(=O)Nc2c3c(cc4c2CCC4)CCC3)s1 (single isomer, unassigned) [Compound 4a]

IC50 (NLRP3): 7.4 nM
Structure (SMILES): COc1cc(-c2ccc3c(c2NC(=O)NS(=N)(=O)c2ccc(N=S(C)(C)=O)s2)CCC3)ccn1 (single isomer, unassigned) [Compound 5a]

IC50 (NLRP3): 9.8 nM | F ([1]; PO 20 mg/kg vs IV 3 mg/kg): 67.6% | AUC(0-inf) ([1]; mouse, plasma, IV 3 mg/kg): 65.7 µM·h | Vd ([1]; mouse, plasma, IV 3 mg/kg): 0.25 L/kg | clearance ([1]; mouse, plasma, IV 3 mg/kg): 1.68 mL/min/kg | half-life ([1]; mouse, plasma, IV 3 mg/kg): 2.1 h | AUC(0-inf) ([1]; mouse, plasma, PO 20 mg/kg): 296 µM·h | Cmax ([1]; mouse, plasma, PO 20 mg/kg): 102 µM | Tmax ([1]; mouse, plasma, PO 20 mg/kg): 0.5 h
Structure (SMILES): CS(C)(=O)=Nc1cnc(S(=N)(=O)NC(=O)Nc2c3c(cc4c2CCC4)CCC3)s1 (single isomer, unassigned) [Compound 7a]
level of IL-1β in APLV after treatment [2]: decreased rapidly | level of IL-6 in APLV after treatment [2]: decreased rapidly | reducing IL-6 in APLV compared with dexamethasone (10 mg/kg dose) ([2]; at high, medium and low doses (50, 15, 5 mg/kg po)): better than dexamethasone | reducing IL-1β in APLV compared with MCC950 (50 mg/kg dose) [2, 5]: significantly better than that of MCC950 | reducing IL-1β in APLV compared with dexamethasone (10 mg/kg) [2, 5]: reaching the same effect as dexamethasone | reducing IL-6 in APLV compared with MCC950 (50 mg/kg dose) [2, 5]: better than MCC950 | effect on reducing IL-1β in APLV ([2]; po, MSU-induced air pouch): significant effect

IC50 (NLRP3): 27.8 nM
Structure (SMILES): CS(C)(=O)=Nc1ccc(S(=N)(=O)NC(=O)Nc2c(-c3ccnc(C#N)c3)ccc3c2CCC3)s1 (stereo not drawn) [Compound 8]

Source: patent US12428391B2, “Dimethylsulfoximine derivative” (CISEN PHARMACEUTICAL CO., LTD, priority 2020, dated 2025)
